Results: patent US20110015153A1, “FLY CONTROL METHOD” (E.I. DU PONT DE NEMOURS AND COMPANY, priority 2007, published 2011)

System: Adult L. serricata (blowflies)
Test: Test A: adult blowflies on blood agar containing test compound, number of dead flies scored
Format: in vivo
Details: 4 flies in test
Method: Adult L. serricata (blowflies): Adult flies are placed on beds of blood agar (in individual test wells; 4 flies per well) in which test compound (3-bromo-1-(3-chloro-2-pyridinyl)-N-[4-cyano-2-methyl-6-[(methylamino)carbonyl]phenyl]-1H-pyrazole-5-carboxamide) was dissolved/suspended prior to hardening of agar. Flies can take up test compound by both ingestion and contact. Assays are scored by number of dead flies at 2 hours, 4 hours, and 24 hours.

SMILES | Number dead flies at 2 hours (Rate 1 ppm in blood agar) | Number dead flies at 4 hours (Rate 1 ppm in blood agar) | Number dead flies at 24 hours (Rate 1 ppm in blood agar) | Number dead flies at 2 hours (Rate 10 ppm in blood agar) | Number dead flies at 4 hours (Rate 10 ppm in blood agar) | Number dead flies at 24 hours (Rate 10 ppm in blood agar) | Number dead flies at 2 hours (Rate 25 ppm in blood agar) | Number dead flies at 4 hours (Rate 25 ppm in blood agar) | Number dead flies at 24 hours (Rate 25 ppm in blood agar) | Number dead flies at 2 hours (Rate 50 ppm in blood agar) | Number dead flies at 4 hours (Rate 50 ppm in blood agar) | Number dead flies at 24 hours (Rate 50 ppm in blood agar) | Number dead flies at 2 hours (Rate 100 ppm in blood agar) | Number dead flies at 4 hours (Rate 100 ppm in blood agar) | Number dead flies at 24 hours (Rate 100 ppm in blood agar)
CNC(=O)c1cc(C#N)cc(C)c1NC(=O)c1cc(Br)nn1-c1ncccc1Cl [Test compound, 3-bromo-1-(3-chloro-2-pyridinyl)-N-[4-cyano-2-methyl-6-[(methylamino)-carbonyl]phenyl]-1H-pyrazole-5-carboxamide] | 0 | 0 | 0 | 0 | 0 | 1 | 0 | 0 | 2 | 0 | 0 | 3 | 0 | 0 | 3
CCOP(=S)(OCC)Oc1nc(Cl)c(Cl)cc1Cl [Chloropyriphos] | 0 | 1 | 4 | 1 | 4 | 4 | 3 | 4 | 4 | 4 | 4 | 4 | 4 | 4 | 4
